{
  "source": "patent US20190255073A1",
  "about": "“ESTERS OF 3-POLYAMINE DERIVATIVES OF BILE ACIDS FOR THE TREATMENT OF INFECTIONS” (VIRBAC, priority 2016, published 2019)",
  "key": {"S. aureus ATCC25923": {"test_system": "S. aureus ATCC25923", "test": "MIC determination by microplate dilution, S. aureus human strain", "format": "cell-based, Staphylococcus aureus", "conditions": "Staphylococcus aureus, ATCC25923, Gram-positive, Mueller-Hinton medium, 24 h, 37° C.", "procedure,_shortened": "(§1)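 Strains precultured in Mueller-Hinton broth 24 h at 37 °C; compounds from 5 mg/mL stocks in DMSO/methanol 50/50, twofold serial dilution in 96-well plates, inoculum set to OD 0.01. Incubated 24 h at 37 °C, humid; OD read at 620 nm to derive MIC, duplicates.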"}, "S. aureus (340)": {"test_system": "S. aureus (340)", "test": "MIC determination by microplate dilution, S. aureus animal strain", "format": "cell-based, Staphylococcus aureus", "conditions": "Staphylococcus aureus, Gram-positive, Mueller-Hinton medium, 24 h, 37° C.", "procedure,_shortened": "as §1"}, "S. intermedius (1051997)": {"test_system": "S. intermedius (1051997)", "test": "MIC determination by microplate dilution, S. intermedius animal strain", "format": "cell-based, Staphylococcus intermedius", "conditions": "Staphylococcus intermedius, Gram-positive, Mueller-Hinton medium, 24 h, 37° C.", "procedure,_shortened": "as §1"}, "E. faecalis ATCC29212": {"test_system": "E. faecalis ATCC29212", "test": "MIC determination by microplate dilution, E. faecalis human strain", "format": "cell-based, Enterococcus faecalis", "conditions": "Enterococcus faecalis, ATCC29212, Gram-positive, Mueller-Hinton medium, 24 h, 37° C.", "procedure,_shortened": "as §1"}, "E. coli ATCC28922": {"test_system": "E. coli ATCC28922", "test": "MIC determination by microplate dilution, E. coli human strain", "format": "cell-based, Escherichia coli", "conditions": "Escherichia coli, ATCC28922, Gram-negative, Mueller-Hinton medium, 24 h, 37° C.", "procedure,_shortened": "as §1"}, "E. coli (1956)": {"test_system": "E. coli (1956)", "test": "MIC determination by microplate dilution, E. coli animal strain", "format": "cell-based, Escherichia coli", "conditions": "Escherichia coli, Gram-negative, Mueller-Hinton medium, 24 h, 37° C.", "procedure,_shortened": "as §1"}, "P. aeruginosa (1051575) [1]": {"test_system": "P. aeruginosa (1051575)", "test": "MIC determination by microplate dilution, P. aeruginosa animal strain", "format": "cell-based, Pseudomonas aeruginosa", "conditions": "Pseudomonas aeruginosa, Gram-negative, Mueller-Hinton medium, 24 h, 37° C.", "procedure,_shortened": "as §1"}, "CHO-K1 cells": {"test_system": "CHO-K1 cells", "test": "WST1 cytotoxicity test on CHO-K1 cells", "format": "cell-based, Chinese hamster", "conditions": "Cricetulus griseus, CHO-K1, read-out: IC50 (μg/mL) CHO", "procedure,_shortened": "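CHO-K1 cells seeded 24 h, then exposed to increasing compound concentrations in duplicate for 24 h at 37 °C, 5% CO2. Viability by WST-1 reduction (20 min, 37 °C), absorbance at 450 nm. IC50 = concentration reducing viability by 50%, from nonlinear regression of dose-response.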"}, "P. aeruginosa (1051575) [2]": {"test_system": "P. aeruginosa (1051575)", "test": "Potentiation of ampicillin activity", "format": "cell-based, Pseudomonas aeruginosa", "conditions": "concentration of compound required with ampicillin 4 μg/mL", "method": "(§2) This method requires the use of a 96-well plate: 100 μL of a liquid culture medium are placed in each well and then seeded with the microbial suspension prepared previously. The required volume to be seeded is calculated for an OD of 0.01, which corresponds to about 5×10^6 bacteria in each well. In this plate, the first line corresponds to a negative control (200 μL of sterile culture medium in each well), the second line corresponds to a positive control (100 μL of sterile culture medium+100 μL of the bacterial suspension), and the third line contains 192 μL of culture medium; 8 μL of compound of formula (I) to be tested are placed in each well. […] 92 μL of bacterial suspension are then added to lines 3 to 8. […] After 24 hours of incubation at 37° C., 40 μL of nitro tetrazolium iodide are added to each well to reveal the presence of live bacteria by staining the medium pink.\n(§3) The procedure is identical to that indicated in Example 5 above. […]\n(§4) The results are given in table V. They indicate the concentration of compound of formula (I) required to be able to restore the activity of the antibiotic under consideration."}, "P. aeruginosa (1051575) [3]": {"test_system": "P. aeruginosa (1051575)", "test": "Potentiation of chloramphenicol activity", "format": "cell-based, Pseudomonas aeruginosa", "method": "as §2, §3, §4"}, "C. albicans": {"test_system": "C. albicans", "test": "Antifungal activity, cascade microdilution, C. albicans", "format": "cell-based, Candida albicans", "conditions": "Candida albicans, 24 h, read-out: IC50 (μg/mL) C. albicans"}},
  "data": [
    {"smiles": "CC(C)OC(=O)CC[C@@H](C)[C@H]1CCC2C3C(CC[C@@]21C)[C@@]1(C)CC[C@H](NCCCN(CCCN)CCCN)CC1C[C@H]3O", "note": "(stereo partly drawn) [(39), isopropyl 3β-(tris(3-aminopropyl)amine)chenodeoxycholate]", "values": [
      {"measurement": "MIC", "setting": "S. aureus ATCC25923", "value": 7, "unit": "µg/mL"},
      {"measurement": "MIC", "setting": "S. aureus (340)", "value": 7, "unit": "µg/mL"},
      {"measurement": "MIC", "setting": "S. intermedius (1051997)", "value": 3.5, "unit": "µg/mL"},
      {"measurement": "MIC", "setting": "E. faecalis ATCC29212", "value": 14, "unit": "µg/mL"},
      {"measurement": "MIC", "setting": "E. coli ATCC28922", "value": 14, "unit": "µg/mL"},
      {"measurement": "MIC", "setting": "E. coli (1956)", "value": 28, "unit": "µg/mL"},
      {"measurement": "MIC", "setting": "P. aeruginosa (1051575) [1]", "value": 28, "unit": "µg/mL"},
      {"measurement": "IC50", "setting": "CHO-K1 cells", "value": 110, "unit": "µg/mL"},
      {"measurement": "MIC P. aeruginosa (1051575), compound + ampicillin", "setting": "P. aeruginosa (1051575) [2]", "value": 30, "unit": "µg/mL"},
      {"measurement": "MIC P. aeruginosa (1051575), compound + chloramphenicol", "setting": "P. aeruginosa (1051575) [3]; concentration of compound required with chloramphenicol 2 μg/mL", "value": 4, "unit": "µg/mL"},
      {"measurement": "MIC P. aeruginosa (1051575), compound + chloramphenicol", "setting": "P. aeruginosa (1051575) [3]; concentration of compound required with chloramphenicol 4 μg/mL", "value": 2, "unit": "µg/mL"},
      {"measurement": "IC50", "setting": "C. albicans", "value": 4, "unit": "µg/mL"}
    ]}
  ]
}
